Format in all cases: in vivo, BALB/c mice
The subject of assay [1] is Influenza A strain HK/PR8. The following applies: for delta Ct / flu/β-actin: lungs day 5, individual mice; for flu/β-actin: Experiment 3.
Another assay relates to airway eosinophilia. Briefly: Propionate intranasal efficacy study, HDM asthma: BAL differential cell counts (Example 3). The following applies: 100 mg/kg intranasally; all treatment regimes (pretreatment; pretreatment and priming; pretreatment, priming and challenge); day 14. How it is done: On days 0, 2, 4, 7, 8 and 11 mice were exposed to 15 ug of house dust mite extract (Greer) intranasally. On day 14, all mice were sacrificed and bronchoalveolar lavage (BAL) was performed with sterile PBS. The total number of macrophages (FIG. 3B), eosinophils (FIG. 3A), lymphocytes (FIG. 3C) and neutrophils (FIG. 3D) was determined by total and differential cell counts using standard morphological and cytochemical techniques.
BAL was performed by flushing the airways three times with 1 ml PBS. Total BAL cells were counted using a Coulter Counter (IG Instruments) and spun onto glass slides using a Cytospin 2 (Shandon Southern Products, Ltd.). Cells were then stained with Diff Quick staining set (Siemens-Dade Behring). Percentages of eosinophils, macrophages, lymphocytes and neutrophils were determined microscopically using standard morphological and cytochemical criteria.
Female BALB/c mice were purchased from Charles River Laboratories at 8 weeks of age. […] On days 0, 2, 4, 7, 8 and 11 mice were exposed to 15 μg of house dust mite extract (Greer) per nasal. On day 14, all mice were sacrificed and bronchoalveolar lavage (BAL) was performed with sterile PBS. The total number of macrophages, eosinophils, lymphocytes and neutrophils was determined by total and differential cell counts using standard morphological and cytochemical techniques. […]

Assay [2] has as its system Influenza virus strain PR8. As to the kind of experiment: Propionate intranasal efficacy study, influenza: lung viral load by PCR (Example 1). The following applies: 100 mg/kg intranasally on days -3, -1, 0; day 5 post infection; compared to saline. How it is done: On day 0 all mice were infected with Influenza virus strain PR8. On day 5 post infection, mice were sacrificed, lungs isolated and viral load determined by PCR.
Female BALB/c mice were purchased from Charles River Laboratories at 8 weeks of age. […] On day 0 mice were infected with 100 PFU of Influenza strain PR8 in 30 μl of PBS solution. On day 5 post infection, mice were sacrificed and lungs were removed and placed in Tri reagent solution. Total RNA was purified from cells obtained from whole lung tissue using Tri reagent. Real time PCR was carried out according to manufacturers instructions using the quantifast SYBR green RT-PCR kit (Qiagen). The following primers Influenza matrix protein primers were used: forward 5′-[…]-3′, reverse 5′-[…]-3′. B-actin primers forward 5′-[…]-3′, reverse 5′-[…]-3′ as previously described van Elden, L. J., M. Nijhuis, P. Schipper, R. Schuurman, A. M. van Loon. 2001. Simultaneous detection of influenza viruses A and B using real-time quantitative PCR. J. Clin. Microbiol. 39: 196-200.

The subject of assay [3] is metapneumonia virus A1 6621 (MPV). Particulars: 100 mg/kg intranasally day -1 and 0; day 5 post infection.

Where “and” joins values, the source holds several entries; their conditions need not be identical. Equal values may be shown once. Entries after “also recorded” stand apart in the source; their conditions may differ. Read-outs that look alike come from different tables or passages of the source.

Regarding `CCC(=O)[O-].[Na+]` [sodium propionate], the “Flu titer at 1 mg/kg compared with the other doses” value in assay [1] (Experiment 1, doses 100, 10, 1 mg/kg i.n.) is “lowest Flu titers”. The “delta Ct” value is 0.05776 and 0.1427 and 0.4687 and 0.01899 and 0.2875 in assay [1] (Experiment 2, 0.01 mg/kg i.n. day 0, listed as NA Propionate, 0.01 mg/kg); 0.3178 and 0.08239 and 0.2101 and 0.01484 and 0.2815 in assay [1] (Experiment 2, 0.1 mg/kg i.n. day 0, listed as NA Propionate, 0.1 mg/kg); 0.01819 and 0.02787 and 0.08699 and 0.009033 and 0.07967 in assay [1] (Experiment 2, 1 mg/kg i.n. day 0, listed as NA Propionate, 1 mg/kg); 0.1146 and 0.03546 and 0.05123 and 0.1345 in assay [1] (Experiment 2, 10 mg/kg i.n. day 0, listed as Na Propionate, 10 mg/kg); 0.02338 and 0.01681 and 0.2248 and 0.2282 in assay [1] (Experiment 2, 100 mg/kg i.n. day 0, listed as Na Propionate, 100 mg/kg). For the same compound, the “efficacy against influenza infection, dose titration” value in assay [1] (Experiment 2, dose of 0.1 mg/kg or less i.n.) was “lack of efficacy”; in assay [1] (Experiment 2, from 100 mg/kg to 1 mg/kg i.n.), “trend towards efficacy”. The “Flu titer / efficacy at 1 mg/kg compared with the other doses” value in assay [1] (Experiment 2, doses 100 to 0.01 mg/kg i.n.) is listed as “highest efficacy; also recorded: lowest Flu titer”. Further, the flu/β-actin is 0.154 and 0.244 and 0.334 and 0.303 in assay [1] (100 mg/kg i.n. Day 0, listed as Na Propionate, 100 mg/kg); 0.176 and 0.277 and 0.312 and 0.217 in assay [1] (100 mg/kg i.n. Day +1, listed as Na Propionate, 100 mg/kg). Besides, the “optimal dose, intranasal” value in assay [1] (mouse, in vivo) was 1 mg/kg. Besides, in the assay with airway eosinophilia, the “airway eosinophilia (BAL eosinophils)” value is recorded as “statistically significant reductions”. For the same compound, the “viral load in the lungs” value in assay [2] is listed as “markedly lower viral load”. For the same compound, the “protection against MPV infection” value in assay [3] is reported as “exhibits efficacy in the protection against MPV infection”.

Values taken from patent US9884032B2, “Esters of short chains fatty acids for use in the treatment of immunogenic disorders” (priority 2012, dated 2018).
